Data taken from US20250361268A1, “NOVEL ANTI-INFLAMMATORY PEPTIDE AND USE THEREOF” (NOVACELL TECHNOLOGY INC., priority 2022, published 2025).
Peptide text beside a SMILES is read from it.

Legend:
FPR2 = target: T1, FPR2 (Homo sapiens, UniProt P25090); test: Change in calcium activity by peptide (Fura-2) in RBL cells overexpressing FPR2; format: cell-based; conditions: calcium activity (Fura-2), graded per Table 3, read-out: EC50 for [Ca^2+] FPR2
T1 construct: expressed in transfected cells; host or cells: RBL cells (RBL-FPR2)
T1 sequence (P25090 1-351): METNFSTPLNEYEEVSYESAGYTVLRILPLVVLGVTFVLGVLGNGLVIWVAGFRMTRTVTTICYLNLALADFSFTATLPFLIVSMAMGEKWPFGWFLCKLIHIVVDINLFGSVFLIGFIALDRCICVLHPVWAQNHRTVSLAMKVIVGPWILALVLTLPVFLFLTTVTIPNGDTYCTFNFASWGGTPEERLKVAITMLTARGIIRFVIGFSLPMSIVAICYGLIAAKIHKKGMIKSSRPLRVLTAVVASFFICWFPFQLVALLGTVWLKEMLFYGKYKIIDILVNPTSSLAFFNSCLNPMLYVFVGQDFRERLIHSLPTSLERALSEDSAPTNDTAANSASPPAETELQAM
Procedure: The present inventors observed changes in calcium ion permeability to confirm whether the immunomodulatory peptide candidates prepared according to one example of the present invention activate the immune function of a living organism. Specifically, the concentration of calcium ions in cells was measured to confirm whether the peptides activate FPR2.
A peptide dissolved in water or 50% DMSO at a concentration of 0.5 mM was prepared by diluting it to an appropriate concentration in HBSS (Sigma, #55037C)+20 mM HEPES buffer.
In this experiment, the cells were cultured in DMEM (Lonza, #BE12-604F) containing 10% fetal bovine serum (FBS) and 1% penicillin-streptomycin under conditions of 37° C. and 5% CO2.
(§1) The day before measuring calcium activity, the cells were prepared at 3×10^5 cells per well in a 96-well flat clear bottom black plate (Costar, #3603). The prepared cells were treated with a Fura-2 QBT calcium kit (component A; Molecular Devices, #8197) at the same volume per well. After incubation at 37° C. for 1 hour, the cells were incubated in a dark room at room temperature for 30 minutes. After the Fura-2-treated cells, the prepared peptide, and a dedicated tip were placed at each section of FlexStation 3 Multi-Mode Microplate Reader (Molecular Devices, #Flex3), changes in calcium activity caused by the peptides were measured using SoftMax Pro 7 Software (Molecular Devices, #FLEX3-INSTALL-OS).

FPR1 = target: T2, FPR1 (Homo sapiens, UniProt P21462); test: Change in calcium activity by peptide, FPR1 activation effect; format: cell-based; conditions: calcium activity (Fura-2), graded per Table 3, read-out: EC50 for [Ca^2+] FPR1
T2 sequence (P21462 1-350): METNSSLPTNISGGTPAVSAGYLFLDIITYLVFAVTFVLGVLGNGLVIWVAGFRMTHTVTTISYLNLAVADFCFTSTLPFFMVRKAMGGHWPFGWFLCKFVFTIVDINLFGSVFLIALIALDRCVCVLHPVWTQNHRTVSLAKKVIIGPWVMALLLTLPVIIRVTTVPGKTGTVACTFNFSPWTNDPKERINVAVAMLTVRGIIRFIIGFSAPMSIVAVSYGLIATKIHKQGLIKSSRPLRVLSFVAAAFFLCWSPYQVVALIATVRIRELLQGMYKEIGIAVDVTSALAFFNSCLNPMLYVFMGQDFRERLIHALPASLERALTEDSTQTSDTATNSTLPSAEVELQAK
Procedure: as §1, with “#FLEX3-INSTALL-OS). […]” for “#FLEX3-INSTALL-OS).”

SMILES	EC50 (FPR2) [nM]	EC50 (FPR1) [nM]
CSCC[C@H](NC(=O)[C@@H](N)CCCNC(=N)N)C(=O)N[C@@H](CCCNC(=N)N)C(=O)N[C@@H](Cc1ccc(O)cc1)C(=O)N[C@@H](CCCCN)C(=O)N1CCC[C@H]1C(=O)N[C@H](CCSC)C(N)=O [Peptide 50] (HELM PEPTIDE1{R.M.R.Y.K.P.[dM].[am]}$$$$V2.0)	< 10	> 10000
CSCC[C@H](N)C(=O)N[C@@H](CCCNC(=N)N)C(=O)N[C@@H](Cc1ccc(O)cc1)C(=O)N[C@@H](CCCCN)C(=O)N1CCC[C@H]1C(=O)N[C@H](CCSC)C(N)=O [Peptide 54] (HELM PEPTIDE1{M.R.Y.K.P.[dM].[am]}$$$$V2.0)	< 10	> 10000
CCCC(=O)N[C@@H](CCSC)C(=O)N[C@@H](CCCNC(=N)N)C(=O)N[C@@H](Cc1ccc(O)cc1)C(=O)N[C@@H](CCCCN)C(=O)N1CCC[C@H]1C(=O)N[C@H](CCSC)C(N)=O [Peptide 56] (HELM PEPTIDE1{[CCCC(=O)[*:2]].M.R.Y.K.P.[dM].[am]}$$$$V2.0)	< 10	> 10000
CCCCCCCC(=O)N[C@@H](CCSC)C(=O)N[C@@H](CCCNC(=N)N)C(=O)N[C@@H](Cc1ccc(O)cc1)C(=O)N[C@@H](CCCCN)C(=O)N1CCC[C@H]1C(=O)N[C@H](CCSC)C(N)=O [Peptide 57] (HELM PEPTIDE1{[CCCCCCCC(=O)[*:2]].M.R.Y.K.P.[dM].[am]}$$$$V2.0)	< 10	> 10000
CSCC[C@H](NC(=O)[C@@H](N)Cc1c[nH]cn1)C(=O)N[C@@H](CCCNC(=N)N)C(=O)N[C@@H](Cc1ccc(O)cc1)C(=O)N[C@@H](CCCCN)C(=O)N1CCC[C@H]1C(=O)N[C@H](CCSC)C(N)=O [Peptide 58] (HELM PEPTIDE1{H.M.R.Y.K.P.[dM].[am]}$$$$V2.0)	< 10	> 10000
CCCC(=O)N[C@@H](Cc1c[nH]cn1)C(=O)N[C@@H](CCSC)C(=O)N[C@@H](CCCNC(=N)N)C(=O)N[C@@H](Cc1ccc(O)cc1)C(=O)N[C@@H](CCCCN)C(=O)N1CCC[C@H]1C(=O)N[C@H](CCSC)C(N)=O [Peptide 60] (HELM PEPTIDE1{[CCCC(=O)[*:2]].H.M.R.Y.K.P.[dM].[am]}$$$$V2.0)	< 10	> 10000
CSCC[C@H](NC(=O)[C@@H]1CCCN1C(C)=O)C(=O)N[C@@H](CCCNC(=N)N)C(=O)N[C@@H](Cc1ccc(O)cc1)C(=O)N[C@@H](CCCCN)C(=O)N1CCC[C@H]1C(=O)N[C@H](CCSC)C(N)=O [Peptide 63] (HELM PEPTIDE1{[ac].P.M.R.Y.K.P.[dM].[am]}$$$$V2.0)	< 10	> 10000
CCCCCCCC(=O)N1CCC[C@H]1C(=O)N[C@@H](CCSC)C(=O)N[C@@H](CCCNC(=N)N)C(=O)N[C@@H](Cc1ccc(O)cc1)C(=O)N[C@@H](CCCCN)C(=O)N1CCC[C@H]1C(=O)N[C@H](CCSC)C(N)=O [Peptide 65] (HELM PEPTIDE1{[CCCCCCCC(=O)[*:2]].P.M.R.Y.K.P.[dM].[am]}$$$$V2.0)	< 10	> 10000
CSCC[C@H](NC(=O)[C@@H](N)CCCCN)C(=O)N[C@@H](CCCCN)C(=O)N[C@@H](Cc1ccc(O)cc1)C(=O)N[C@@H](CCCCN)C(=O)N1CCC[C@H]1C(=O)N[C@H](CCSC)C(N)=O [Peptide 66] (HELM PEPTIDE1{K.M.K.Y.K.P.[dM].[am]}$$$$V2.0)	11 to 100	> 10000

Next, values leading:

EC50 (FPR2) [nM]	EC50 (FPR1) [nM]	SMILES
11 to 100	> 10000	CSCC[C@@H](NC(=O)[C@H](Cc1ccc(O)cc1)NC(=O)[C@H](CCCNC(=N)N)NC(=O)[C@H](Cc1ccc(O)cc1)NC(=O)[C@H](CCCNC(=N)N)NC(=O)[C@H](Cc1c[nH]c2ccccc12)NC(=O)[C@@H](N)CCCNC(=N)N)C(N)=O [Peptide 48] (HELM PEPTIDE1{R.W.R.Y.R.Y.[dM].[am]}$$$$V2.0)
11 to 100	> 10000	CSCC[C@H](NC(C)=O)C(=O)N[C@@H](CCCNC(=N)N)C(=O)N[C@@H](Cc1ccc(O)cc1)C(=O)N[C@@H](CCCNC(=N)N)C(=O)N[C@@H](Cc1ccc(O)cc1)C(=O)N[C@H](CCSC)C(N)=O [Peptide 49] (HELM PEPTIDE1{[ac].M.R.Y.R.Y.[dM].[am]}$$$$V2.0)
< 10	> 10000	CSCC[C@H](NC(=O)[C@H](CCCNC(=N)N)NC(C)=O)C(=O)N[C@@H](CCCNC(=N)N)C(=O)N[C@@H](Cc1ccc(O)cc1)C(=O)N[C@@H](CCCCN)C(=O)N1CCC[C@H]1C(=O)N[C@H](CCSC)C(N)=O [Peptide 51] (HELM PEPTIDE1{[ac].R.M.R.Y.K.P.[dM].[am]}$$$$V2.0)
< 10	> 10000	CCCC(=O)N[C@@H](CCCNC(=N)N)C(=O)N[C@@H](CCSC)C(=O)N[C@@H](CCCNC(=N)N)C(=O)N[C@@H](Cc1ccc(O)cc1)C(=O)N[C@@H](CCCCN)C(=O)N1CCC[C@H]1C(=O)N[C@H](CCSC)C(N)=O [Peptide 52] (HELM PEPTIDE1{[CCCC(=O)[*:2]].R.M.R.Y.K.P.[dM].[am]}$$$$V2.0)
< 10	> 10000	CCCCCCCC(=O)N[C@@H](CCCNC(=N)N)C(=O)N[C@@H](CCSC)C(=O)N[C@@H](CCCNC(=N)N)C(=O)N[C@@H](Cc1ccc(O)cc1)C(=O)N[C@@H](CCCCN)C(=O)N1CCC[C@H]1C(=O)N[C@H](CCSC)C(N)=O [Peptide 53] (HELM PEPTIDE1{[CCCCCCCC(=O)[*:2]].R.M.R.Y.K.P.[dM].[am]}$$$$V2.0)
< 10	> 10000	CSCC[C@H](NC(=O)[C@H](Cc1c[nH]cn1)NC(C)=O)C(=O)N[C@@H](CCCNC(=N)N)C(=O)N[C@@H](Cc1ccc(O)cc1)C(=O)N[C@@H](CCCCN)C(=O)N1CCC[C@H]1C(=O)N[C@H](CCSC)C(N)=O [Peptide 59] (HELM PEPTIDE1{[ac].H.M.R.Y.K.P.[dM].[am]}$$$$V2.0)
< 10	> 10000	CCCCCCCC(=O)N[C@@H](Cc1c[nH]cn1)C(=O)N[C@@H](CCSC)C(=O)N[C@@H](CCCNC(=N)N)C(=O)N[C@@H](Cc1ccc(O)cc1)C(=O)N[C@@H](CCCCN)C(=O)N1CCC[C@H]1C(=O)N[C@H](CCSC)C(N)=O [Peptide 61] (HELM PEPTIDE1{[CCCCCCCC(=O)[*:2]].H.M.R.Y.K.P.[dM].[am]}$$$$V2.0)
< 10	> 10000	CSCC[C@H](NC(=O)[C@@H]1CCCN1)C(=O)N[C@@H](CCCNC(=N)N)C(=O)N[C@@H](Cc1ccc(O)cc1)C(=O)N[C@@H](CCCCN)C(=O)N1CCC[C@H]1C(=O)N[C@H](CCSC)C(N)=O [Peptide 62] (HELM PEPTIDE1{P.M.R.Y.K.P.[dM].[am]}$$$$V2.0)
< 10	> 10000	CCCC(=O)N1CCC[C@H]1C(=O)N[C@@H](CCSC)C(=O)N[C@@H](CCCNC(=N)N)C(=O)N[C@@H](Cc1ccc(O)cc1)C(=O)N[C@@H](CCCCN)C(=O)N1CCC[C@H]1C(=O)N[C@H](CCSC)C(N)=O [Peptide 64] (HELM PEPTIDE1{[CCCC(=O)[*:2]].P.M.R.Y.K.P.[dM].[am]}$$$$V2.0)
< 10	> 10000	CSCC[C@H](NC(=O)[C@H](CCCCN)NC(C)=O)C(=O)N[C@@H](CCCCN)C(=O)N[C@@H](Cc1ccc(O)cc1)C(=O)N[C@@H](CCCCN)C(=O)N1CCC[C@H]1C(=O)N[C@H](CCSC)C(N)=O [Peptide 67] (HELM PEPTIDE1{[ac].K.M.K.Y.K.P.[dM].[am]}$$$$V2.0)
< 10	> 10000	CCCC(=O)N[C@@H](CCCCN)C(=O)N[C@@H](CCSC)C(=O)N[C@@H](CCCCN)C(=O)N[C@@H](Cc1ccc(O)cc1)C(=O)N[C@@H](CCCCN)C(=O)N1CCC[C@H]1C(=O)N[C@H](CCSC)C(N)=O [Peptide 68] (HELM PEPTIDE1{[CCCC(=O)[*:2]].K.M.K.Y.K.P.[dM].[am]}$$$$V2.0)
